Reference: patent US9126060B2, “Cosmetic use of geranylgeranyl-2-propanol” (SEDERMA, priority 2010, dated 2015)

How the values were obtained:
tyrosinase = target: T1, tyrosinase (Homo sapiens, UniProt P14679); assay: Residual tyrosinase activity in human melanocytes; type: cell-based; settings: for tyrosinase activity: 5 days, n = 4
T1 construct: endogenous in cells; host or cells: human melanocytes
T1 sequence (P14679 19-529): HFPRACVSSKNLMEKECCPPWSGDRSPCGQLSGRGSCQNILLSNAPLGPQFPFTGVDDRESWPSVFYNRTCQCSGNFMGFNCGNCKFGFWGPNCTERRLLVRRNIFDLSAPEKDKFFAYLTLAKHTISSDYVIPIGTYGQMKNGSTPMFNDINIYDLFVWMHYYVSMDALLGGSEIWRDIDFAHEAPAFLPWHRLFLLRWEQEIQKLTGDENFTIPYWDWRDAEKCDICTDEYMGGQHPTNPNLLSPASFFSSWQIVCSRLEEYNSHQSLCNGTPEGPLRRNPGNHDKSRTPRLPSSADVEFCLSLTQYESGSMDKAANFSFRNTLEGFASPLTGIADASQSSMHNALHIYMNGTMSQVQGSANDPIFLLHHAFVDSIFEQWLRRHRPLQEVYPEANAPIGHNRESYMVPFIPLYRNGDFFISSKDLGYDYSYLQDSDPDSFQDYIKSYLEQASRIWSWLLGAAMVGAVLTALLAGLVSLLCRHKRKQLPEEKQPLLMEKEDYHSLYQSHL
Experimental: (§1) Principle: Human melanocytes are seeded and placed in contact with the GGP for 5 days. After incubation, the residual tyrosinase activity and total melanin content were measured in cell homogenates, and then divided by the number of cells (melanin) or to the protein amount (tyrosinase).

human dermal fibroblasts [1] = assay: Senescence associated β-galactosidase activity in fibroblasts after oxidising stress (FDG fluorimetry); type: cell-based; settings: for β-galactosidase relative activity: after oxidising stress, n = 4
Experimental: Principle: Proliferative human dermal fibroblasts were contacted or not with the GGP for 72 hours in a growth medium. After this first incubation, the cells were subjected for 5 days to an oxidative stress daily, one hour each, in a basic medium, common to all cultures. This stress is known to create a SIPS and to induce a strong increase in β-galactosidase activity in the stressed culture compared to an unstressed culture. Between two stress cells are returned to the growth medium with or without the substance tested. After the fifth stress, β-galactosidase activity is evaluated.
Evaluation of β-galactosidase activity is done after fixing the layers. They are put in contact with a substrate of β-galactosidase nonfluorescent FDG (fluorescein di-β-galactopyranoside), which will release a fluorescent compound upon hydrolysis by β-galactosidase. The emitted fluorescence is quantified in a fluorometer. It will increase with the amount of senescent cells present in culture. The relative activity of β-galactosidase thus found is 2974+/−957 UFA/million cells in a proliferative culture and increases by a factor 5 (p<0.01) in a culture little to not proliferative.

human dermal fibroblasts [2] = assay: Collagen gel contraction by human dermal fibroblasts cultivated until presenescence; type: cell-based; settings: for Gel heterogeneity / Gel surface: n = 5
Description: Principle: Proliferative human dermal fibroblasts were cultivated with or without the GGP over several generations to obtain presenescent cells. A constant number of cells from each case was then included in a collagen gel. The contractile capacity of cells was then followed by using photographs. Quantification by image analysis, focused on the intensity of the contraction (gel surface) and the contraction quality (gel heterogeneity).

[3] = ORAC test (Oxygen-Radical Absorbance Capacity): fluorescein degradation by peroxyl radicals; type: biochemical; settings: n = 6
Description: Principle: the ORAC test (“Oxygen-Radical Absorbance Capacity”) measures degradation by the oxidative way of a fluorescent molecule (fluorescein). Degradation of fluorescein by peroxyl radicals generated by AAPH (2,2′-azobis (2-amidinopropane) dichloride) induces a decrease in fluorescence measured by a spectrofluorometer during a degradation kinetic.
An antioxidant protects this fluorescein against this radical degradation. The decrease in fluorescence will be smaller and slower in the presence of the antioxidant than in its absence. The comparison between the parameters of the two kinetics makes it possible to calculate a percentage of protection against free radical degradation.

Keratinocytes = assay: Keratinocyte culture survival and recovery after UVB stress (cell count); type: cell-based; settings: for Cell number, mean (n = 3): UVB 50 mJ/cm^2, six days later
Experimental: Keratinocytes in monolayer, after an UVB radiation (12 to 240 mJ/cm^2), develop on their surface many burgeons, detach from the culture medium, undergo damages up to death. A cell count at various times after UVB radiation is used to evaluate the cell viability of the culture. This model is widely used in cosmetics to evaluate the protective effect of various compounds against the deleterious effects of UVB stress.
Principle: Keratinocytes were cultured in 35 mm dish. Just at confluence, the cells are contacted or not with the GGP for 24 hours. UVB irradiation (50 mJ/cm^2) is performed the next day, and the cells are or not contacted with the GGP. Six days later, the cells are counted to determine the cell viability in culture.

human melanocytes = assay: Melanin content of human melanocytes; type: cell-based; settings: for Melanin content: 5 days, n = 4
Experimental: as §1

## CC(C)=CCC/C(C)=C/CC/C(C)=C/CC/C(C)=C/CCC(C)O (stereo not drawn) [GGP, 6,10,14,18-tetramethylnonadeca-5,9,13,17-tetraen-2-ol]
tyrosinase; 1 ppm
  Change (%) of tyrosinase activity vs control: −11%; p < 0.05
  tyrosinase activity: 6.196 +/− 0.318 U/μg prot
tyrosinase; 3 ppm
  Change (%) of tyrosinase activity vs control: −29%; p < 0.01
  tyrosinase activity: 4.956 +/− 0.129 U/μg prot
tyrosinase; 5 ppm
  Change (%) of tyrosinase activity vs control: −49%; p < 0.01
  tyrosinase activity: 3.588 +/− 0.248 U/μg prot
Human dermal fibroblasts [1]; 3 ppm
  Change with regard to control (β-galactosidase): −35%; p = 0.05
  β-galactosidase relative activity: 3702 +/− 992 FAU/10^6 cells
Human dermal fibroblasts [1]; 5 ppm
  Change with regard to control (β-galactosidase): −51%; p < 0.02
  β-galactosidase relative activity: 2789 +/− 803 FAU/10^6 cells
Human dermal fibroblasts [2]; 3 ppm
  % change of gel surface vs control: −17.5%; p < 0.01
  Gel heterogeneity: 22.9 +/− 4.1 UA
  Gel surface: 6.12 ± 1.94 cm^2
Human dermal fibroblasts [2]; 5 ppm
  % change of gel surface vs control: −21.5%; p < 0.01
  Gel heterogeneity: 21.8 +/− 3.6 UA
  Gel surface: 5.82 ± 1.69 cm^2
[3]; 10 ppm
  % of protection: 56%
[3]; 50 ppm
  % of protection: 68%
[3]; 200 ppm
  % of protection: 77%
[3]; 400 ppm
  % of protection: 87%
Keratinocytes; 1 ppm
  % change/control of cell number: +31%
  Cell number, mean (n = 3): 4.83 ×10^5/35 mm dish
Keratinocytes; 1.65 ppm
  % change/control of cell number: +38%
  Cell number, mean (n = 3): 5.08 ×10^5/35 mm dish
Human melanocytes; 1 ppm
  Change (%) of melanin content vs control: −4%; nsd
  Melanin content: 46.6 +/− 2.4 μg/mL/10^6 cell
Human melanocytes; 3 ppm
  Change (%) of melanin content vs control: −36%; p < 0.01
  Melanin content: 31.3 +/− 1.4 μg/mL/10^6 cell
Human melanocytes; 5 ppm
  Change (%) of melanin content vs control: −59%; p < 0.01
  Melanin content: 20.2 +/− 1.3 μg/mL/10^6 cell
